Measurements from paper PMC3518313 (Biochemistry, 2012).
Where two headings read alike, the source gives them in different places.

Tests used:
αY60W-CaaD [1] = biological target: T1, αY60W-CaaD (Pseudomonas pavonaceae, UniProt Q9EV84+Q9EV85, Q9EV85:Y61W); details: αY60W-CaaD vs wild-type
T1 sequence (Q9EV85 2-76 Y61W): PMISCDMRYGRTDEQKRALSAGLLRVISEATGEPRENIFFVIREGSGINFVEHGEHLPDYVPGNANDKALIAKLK
T1 sequence (Q9EV84 2-71): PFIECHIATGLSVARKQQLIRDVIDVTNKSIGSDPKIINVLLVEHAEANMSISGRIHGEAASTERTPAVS

αL57W-CaaD = assay: Steady state activity assay; assay type: biochemical, Pseudomonas pavonaceae 170; details: αL57W mutant
βI37W-CaaD = βI37W-CaaD (Pseudomonas pavonaceae, UniProt Q9EV84+Q9EV85, Q9EV84:I38W); assay: biochemical
Wild-type CaaD = biological target: T2, Wild-type CaaD (Pseudomonas pavonaceae, UniProt Q9EV84+Q9EV85); assay: Rapid-quench burst experiment, bromide quantified by IC; details: wild-type 400 μM; saturating 9; pH 8.1, 22 °C
T2 sequence (Q9EV85 2-76): T1 sequence (Q9EV85 2-76 Y61W)
T2 sequence (Q9EV84 2-71): T1 sequence (Q9EV84 2-71)

αY60W-CaaD [2] = biological target: T1, αY60W-CaaD; assay: Global fitting of kinetic data to the six-step model; assay type: biochemical, Pseudomonas pavonaceae 170
αM7W-CaaD = assay type: biochemical; details: αM7W-CaaD vs wild-type
αY60W-CaaD [3] = biological target: T1, αY60W-CaaD; assay: Rapid-quench burst experiment, bromide quantified by IC
αY60W-CaaD [4] = biological target: T1, αY60W-CaaD; assay: Stopped-flow fluorescence of the reaction with 9, conventional analysis; assay type: biochemical, Pseudomonas pavonaceae 170
αY60W-CaaD [5] = biological target: T1, αY60W-CaaD
αY60W-CaaD [6] = biological target: T1, αY60W-CaaD; details: competitive inhibition; 9 at 35–200 μM, bromide 0–50,000 μM
O=C(O)/C=C/Br = assay: purified protein, by the assay type
αY60W-CaaD [7] = biological target: T1, αY60W-CaaD; assay: Stopped-flow fluorescence binding of malonate semialdehyde; set-up: species or system Pseudomonas pavonaceae 170
CaaD = assay: Inhibition of CaaD by the internal standard tartrate; assay type: biochemical, Pseudomonas pavonaceae 170; details: at concentrations of 4 mM
[8] = substrate: O=C(O)/C=C/Br; assay: purified protein, by the assay type; details: other: wild-type CaaD, 100 mM Na2HPO4 buffer pH 8.1, 22 °C
[9] = Table 2, αY60W 400 μM, saturating 9, pH 8.1, 22 °C
[10] = Table 3, enzyme concentration 200 μM, 9 at 10,000 μM
[11] = Table 3, enzyme concentration 400 μM, 9 at 10,000 μM
[12] = Table 3, enzyme concentration 600 μM, 9 at 10,000 μM
[13] = other: αM7W, 100 mM Na2HPO4 buffer pH 8.1, 22 °C, pH 8.1, 22.0 °C
[14] = other: using the numbers in Table 4 and Scheme 3

For `O=C(O)/C=C/Br` [compound 9, trans-3-bromoacrylate], the “decrease in Km compared with wild-type” value (αY60W-CaaD [1]) was ~ 1.5 fold, the activity (αL57W-CaaD) was “no activity” and the Kd (βI37W-CaaD) was over 40 mM. For the same molecule, the “Burst Amplitude (A)” value (Wild-type CaaD) was 0.8, the kburst (Wild-type CaaD) was 90 ± 20 ^c s^−1 and the “kcat (calculated from the burst equation)” value (Wild-type CaaD) was 3 ± 0.5 s⁻¹. The “f/f0 (fluorescence scaling factor), best fit” value (αY60W-CaaD [2]; global fit to Scheme 4, fractional change in enzyme fluorescence) was 0.710, the “k3, best fit” value (αY60W-CaaD [2]; global fit, formation of E*PQ, k-3 fixed at 1 s^−1) was 9.6 s⁻¹ and the “decrease in kcat compared with wild-type” value (αM7W-CaaD) was ~ 4 fold. The “decrease in kcat/Km compared with wild-type” value (αM7W-CaaD) was 4 fold, the “Burst Amplitude (A)” value (αY60W-CaaD [3]; [9]) was 0.9 and the kburst (αY60W-CaaD [3]; [9]) was 86 ± 10 s⁻¹. The “kcat (calculated from the burst equation)” value (αY60W-CaaD [3]; [9]) was 2.5 ± 0.5 s⁻¹, the “Burst Amplitude (A)” value (αY60W-CaaD [3]; [10]) was 0.85 and the kburst (αY60W-CaaD [3]; [10]) was 43 ± 3 ^c s^−1. For the same molecule, the “kcat (calculated from the burst equation)” value (αY60W-CaaD [3]; [10]) was 1.8 ± 0.5 s⁻¹, the “Burst Amplitude (A)” value (αY60W-CaaD [3]; [11]) was 0.9 and the kburst (αY60W-CaaD [3]; [11]) was 86 ± 20 s⁻¹. The “kcat (calculated from the burst equation)” value (αY60W-CaaD [3]; [11]) was 2.5 ± 0.5 s⁻¹, the “Burst Amplitude (A)” value (αY60W-CaaD [3]; [12]) was 0.94 and the kburst (αY60W-CaaD [3]; [12]) was 107 ± 15 s⁻¹. The “kcat (calculated from the burst equation)” value (αY60W-CaaD [3]; [12]) was 2.8 ± 0.5 s⁻¹, the steady state turnover (αY60W-CaaD [3]; summary of Tables 2 and 3 (CaaD and αY60W-CaaD), 9 at 10 mM) was 3 s⁻¹ and the “net forward rate kfor” value (αY60W-CaaD [4]; fit to Eq. 3) was ~ 8 s^−1. The “apparent reverse rate krev” value (αY60W-CaaD [4]; fit to Eq. 3, equal to kcat) was ~ 3 s^−1 and the “maximum rate of the fluorescence change” value (αY60W-CaaD [4]; single exponential fit, first 1 s) was ~ 10 s^−1.

With `Br` [bromide] the increase in fluorescence (αY60W-CaaD [5]; bromide bound to αY60W-CaaD) was ~ 14%, the “fluorescence factor for enzyme-bound bromide” value (αY60W-CaaD [5]; fit by simulation) was 1.17 and the Kd (αY60W-CaaD [5]; read-out: Kd, Br-, fit by simulation, koff fixed at 200 s^−1) was 12 mM. The Kd (αY60W-CaaD [5]; read-out: predicted Kd, saturation of the fluorescence signal, hyperbolic fit) was 7.4 mM, the Ki (αY60W-CaaD [6]) was about 10 mM and the Kd (αY60W-CaaD [2]; read-out: Kd,Br, best fit, global fit, k5 held fixed at 200 s^−1) was 12.5 mM.

“αM7W-CaaD (Pseudomonas pavonaceae; Q9EV85:M8W)” showed a Km (O=C(O)/C=C/Br; [13]) of 120 ± 10 OM, a kcat (O=C(O)/C=C/Br; [13]) of 0.6 s⁻¹ and a kcat/Km (O=C(O)/C=C/Br; [13]) of 3000 M⁻¹ s⁻¹.

`O=CCC(=O)O` [compound 4, malonate semialdehyde] showed a Kd (αY60W-CaaD [7]; Kd (koff / kon), estimate from conventional kon and koff) of 1.1 mM, a Kd (αY60W-CaaD [7]; Kd, 4, calculated from simulation kon and koff) of about 0.6 mM and a Kd (αY60W-CaaD [7]; Kd, end-point fluorescence titration fit to Equation S2) of 0.38 mM. The “fluorescence factor for enzyme bound to 4” value (αY60W-CaaD [7]; fit by simulation) was 1.14, the koff (αY60W-CaaD [7]; read-out: koff, 4, conventional analysis, kobs vs [4], 250 ms) was 28 s⁻¹ and the koff (αY60W-CaaD [7]; read-out: koff, 4, fit by simulation (250 ms)) was 17 s⁻¹. For the same molecule, the “increase in the fluorescence signal” value (αY60W-CaaD [7]; upon mixing αY60W-CaaD with 4) was 16%.

`O=C(O)/C=C/Cl` [compound 2, trans-3-chloroacrylic acid] was tested, and the activity (αL57W-CaaD) was “no activity”.

`O=C(O)C(O)C(O)C(=O)O` (centres unmarked) [Tartrate] was tested, and the “inhibition of CaaD” value (CaaD) was “does not inhibit”.

Work on “αY60W-CaaD (Pseudomonas pavonaceae; Q9EV85:Y61W)” yielded a Km (O=C(O)/C=C/Br; [14]) of 95 µM, a kcat (O=C(O)/C=C/Br; [14]) of 2.2 s⁻¹ and a Km (O=C(O)/C=C/Br; other: αY60W, 100 mM Na2HPO4 buffer pH 8.1, 22 °C, pH 8.1, 22.0 °C) of 70 ± 3.5 OM.

B1: Wild-type CaaD (Pseudomonas pavonaceae) (protein)
chain 1: T1 sequence (Q9EV85 2-76 Y61W)
chain 2: T1 sequence (Q9EV84 2-71)
In the case of B1, the Km [8] is reported as 120 ± 10 OM, the kcat [8] is reported as 2.5 s⁻¹ and the kcat/Km [8] is reported as 13000 M⁻¹ s⁻¹.
